Assay results published in US20090029992A1, “SUBSTITUTED PYRAZOLE COMPOUNDS” (priority 2007, published 2009).

What was measured:
[1] = molecular target: T1, N-terminal GST-tagged recombinant human Flt3, residues 564-end (Homo sapiens, UniProt P36888); assay: Flt3 kinase inhibition assay (33P-ATP filter assay); format: biochemical
T1 construct: recombinant human Flt3, residues 564-end; GST (N); purchased Upstate USA Inc, 706 Forest Street, Charlottesville, Va
T1 sequence (P36888 564-993 limits assumed): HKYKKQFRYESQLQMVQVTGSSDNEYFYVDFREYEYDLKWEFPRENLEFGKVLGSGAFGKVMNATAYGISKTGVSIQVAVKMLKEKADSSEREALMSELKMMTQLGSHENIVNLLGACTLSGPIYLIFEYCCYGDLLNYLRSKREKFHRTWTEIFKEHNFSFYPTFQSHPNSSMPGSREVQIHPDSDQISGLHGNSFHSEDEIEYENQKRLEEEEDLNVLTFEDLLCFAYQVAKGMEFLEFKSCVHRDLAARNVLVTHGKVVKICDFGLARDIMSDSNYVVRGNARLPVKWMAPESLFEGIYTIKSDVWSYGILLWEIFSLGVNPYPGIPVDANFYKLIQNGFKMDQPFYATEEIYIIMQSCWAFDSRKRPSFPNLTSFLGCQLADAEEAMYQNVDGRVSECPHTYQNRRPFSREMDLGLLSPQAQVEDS
Description: (§1) Compounds were assayed for Flt3 kinase inhibitory activity using N-terminal GST-tagged recombinant human Flt3, residues 564-end (Upstate USA Inc, 706 Forest Street, Charlottesville, Va.). Serial dilutions of compound were assayed in a final reaction volume of 25 μL by incubating a solution of the above Flt3 kinase (5-10 mU), 8 mM MOPS (3-(N-morpholino) propanesulfonic acid) pH 7.0, 0.2 mM EDTA (ethylenediamine tetracetic acid), 50 μM amino acid sequence EAIYAAPFAKKK (Upstate USA Inc, 706 Forest Street, Charlottesville, Va.), and 10 mM magnesium acetate and [γ-^33P-ATP] (specific activity of about 500 cpm/μmol, concentration as required). The reaction was initiated by the addition of the magnesium acetate and [γ-^33P-ATP] mixture. After incubation for 40 minutes at room temperature, the reaction was stopped by the addition of 5 μL of a 3% phosphoric acid solution. A 10 μL aliquote of the reaction was then spotted onto a P30 filtermat (PerkinElmer, Wellesley, Mass.) and washed three times for five minutes in 75 mM phosphoric acid and once in methanol prior to drying and scintillation counting. Inhibition of Flt3 activity was determined by comparison to assays that contained no inhibitor.

[2] = molecular target: T2, N-terminal His6-tagged recombinant human KDR, residues 790-end (Homo sapiens, UniProt P35968); assay: KDR kinase inhibition assay (33P-ATP filter assay); format: biochemical
T2 construct: recombinant human KDR, residues 790-end; His6 (N); purchased Upstate USA Inc, 706 Forest Street, Charlottesville, Va
Description: as §1, with “KDR” for “Flt3”, “His6-tagged” for “GST-tagged”, “KDR,” for “Flt3,”, “790-end” for “564-end”, “0.33 mg/mL myelin basic protein” for “50 μM amino acid sequence EAIYAAPFAKKK”

HCT116 cells = assay: Whole cell cytotoxicity assay, Sulforhodamine B; format: cell-based; conditions: Homo sapiens, HCT-116, HCT116, 96 hours incubation, SRB; for GI50: read-out: GI50 HCT116 cell growth; for IC50: read-out: IC50 values in this assay (HCT116 cell growth)
Description: Human tumor-derived cell lines, HCT116 or MCF7 (ATCC) were plated in a 96 well plate in DMEM containing 10% fetal bovine serum and 2 mM L-glutamine at a density of 500 HCT116 cells or 1,000 MCF7 cells per well and incubated at 37° C., 5% CO2, for 24 hours prior to the addition of experimental compounds. Compounds were added using the dilution series indicated to duplicate plates and the cells were incubated in media plus compound for 96 hours. An additional plate was fixed in 10% TCA at the time of the addition of compound to provide a measurement of the cell population at time zero, the time of drug addition. Following the 96 hour incubation, cells were fixed in situ by gently aspirating off the culture media and then adding 50 ul of ice cold 10% TCA per well and incubation at 4° C. for 60 minutes. The plates were washed with tap water five times and allowed to air dry for 5 minute. 50 ul of a 0.4% (w/v) Sulforhodamine B solution in 1% (v/v) acetic acid was added per well and the cells were incubated for 30 minutes at room temperature. Following staining, plates were washed four times with 1% acetic acid to remove any unbound dye and then allowed to air dry for 5 minutes. The stain was solubilized with 100 ul of 10 mM Tris pH 10.5 per well and placed on an orbital rotator for 5 minutes. The absorbance was read at 570 nm. Percentage growth was calculated using the absorbance readings from the time zero plate (Tz) and the dilution series plate […] which included a column of cells grown in media without compound as a control (C) using the formulas:
[(Ti−Tz)/(C−Tz)]×100 for concentrations for which Ti>/=Tz
[(Ti−Tz)/Tz]×100 for concentrations for which Ti<Tz.
Three dose response parameters were calculated for each experimental agent. Growth inhibition of 50% (GI50) was calculated from [(Ti−Tz)/(C−Tz)]×100=50, which was the drug concentration resulting in a 50% reduction in the net protein increase (as measured by SRB staining) in control cells during the drug incubation. The drug concentration resulting in total growth inhibition (TGI) was calculated from Ti=Tz. The LC50 (concentration of drug resulting in a 50% reduction in the measured protein at the end of the drug treatment as compared to that at the beginning) indicating a net loss of cells following treatment ws calculated from [(Ti−Tz)/Tz]×100=−50. Values are calculated for each of these three parameters if the level of activity was reached; however, if the effect was not reached or was exceeded, the value for that parameter is expressed as greater or less than the maximum or minimum concentration tested.

[3] = molecular target: T3, N-terminal His-tagged human Src (Homo sapiens, UniProt P12931); assay: Src kinase inhibition assay (33P-ATP filter assay); format: biochemical
T3 construct: His (N); purchased Upstate USA Inc, 706 Forest Street, Charlottesville, Va
Description: Compounds were assayed for Src kinase inhibitory activity using N-terminal His-tagged human Src (Upstate USA Inc, 706 Forest Street, Charlottesville, Va.). Serial dilutions of compound were assayed in a final reaction volume of 25 μL by incubating a solution of the above Src kinase (5-10 mU), 8 mM MOPS (3-(N-morpholino) propanesulfonic acid) pH 7.0, 0.2 mM EDTA (ethylenediamine tetracetic acid), 250 μM amino acid sequence KVEKIGEGTYGVVYK (Upstate USA Inc, 706 Forest Street, Charlottesville, Va.), and 10 mM magnesium acetate and [γ-^33P-ATP] (specific activity of about 500 cpm/μmol, concentration as required). The reaction was initiated by the addition of the magnesium acetate and [γ-^33P-ATP] mixture. After incubation for 40 minutes at room temperature, the reaction was stopped by the addition of 5 μL of a 3% phosphoric acid solution. A 10 μL aliquote of the reaction was then spotted onto a P30 filtermat (PerkinElmer, Wellesley, Mass.) and washed three times for five minutes in 75 mM phosphoric acid and once in methanol prior to drying and scintillation counting. Inhibition of Src activity was determined by comparison to assays that contained no inhibitor.

[4] = group with IC50 greater than 100 nM

T2 sequence (P35968 790-1356 limits assumed): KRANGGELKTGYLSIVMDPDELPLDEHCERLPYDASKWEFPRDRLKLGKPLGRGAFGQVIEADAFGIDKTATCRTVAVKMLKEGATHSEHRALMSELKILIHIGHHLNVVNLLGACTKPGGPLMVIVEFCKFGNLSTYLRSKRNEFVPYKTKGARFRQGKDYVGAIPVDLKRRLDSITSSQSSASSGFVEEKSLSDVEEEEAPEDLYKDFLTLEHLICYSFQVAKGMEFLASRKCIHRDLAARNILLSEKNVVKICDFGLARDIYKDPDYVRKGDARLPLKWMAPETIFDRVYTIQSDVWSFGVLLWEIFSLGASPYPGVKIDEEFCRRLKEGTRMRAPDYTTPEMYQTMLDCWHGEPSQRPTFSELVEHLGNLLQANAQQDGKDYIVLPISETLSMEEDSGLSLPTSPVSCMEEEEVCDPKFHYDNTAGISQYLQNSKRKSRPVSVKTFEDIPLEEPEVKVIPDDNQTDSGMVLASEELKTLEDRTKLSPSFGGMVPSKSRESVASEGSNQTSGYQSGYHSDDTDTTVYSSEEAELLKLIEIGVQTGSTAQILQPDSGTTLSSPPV
T3 sequence (P12931 whole entry): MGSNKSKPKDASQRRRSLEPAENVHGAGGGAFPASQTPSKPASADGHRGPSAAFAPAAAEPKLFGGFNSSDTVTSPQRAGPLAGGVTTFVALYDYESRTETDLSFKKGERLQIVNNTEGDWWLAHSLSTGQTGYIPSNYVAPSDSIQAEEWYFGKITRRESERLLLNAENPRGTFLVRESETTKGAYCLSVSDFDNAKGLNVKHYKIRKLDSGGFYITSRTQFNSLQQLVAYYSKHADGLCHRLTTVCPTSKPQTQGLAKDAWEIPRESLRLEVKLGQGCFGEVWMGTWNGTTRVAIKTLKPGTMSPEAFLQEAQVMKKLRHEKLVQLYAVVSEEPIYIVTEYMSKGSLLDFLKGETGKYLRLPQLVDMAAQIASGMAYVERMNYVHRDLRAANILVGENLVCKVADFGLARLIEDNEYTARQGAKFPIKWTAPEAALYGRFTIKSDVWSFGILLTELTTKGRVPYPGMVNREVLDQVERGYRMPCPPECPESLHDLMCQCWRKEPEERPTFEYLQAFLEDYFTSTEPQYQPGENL

| SMILES | IC50 ([1]; 40 minutes at room temperature) [µM] | IC50 [2, 4] [µM] | IC50 (HCT116 cells) [µM] | also measured |
| --- | --- | --- | --- | --- |
| COc1ccccc1-c1nc(Nc2cc(C)[nH]n2)cc(N(C)CCN(C)C)n1 [Compound 56, N^4-(2-(dimethylamino)ethyl)-2-(2-methoxyphenyl)-N^4-methyl-N^6-(5-methyl-1H-pyrazol-3-yl)pyrimidine-4,6-diamine] | ≤ 0.1 | ≤ 1 |  | GI50 (HCT116 cells): ≤ 1 µM |
| COc1ccccc1-c1nc(Nc2cc(C)[nH]n2)cc(NC2CCOCC2)n1 [Compound 30, 2-(2-methoxyphenyl)-N^4-(5-methyl-1H-pyrazol-3-yl)-N^6-(tetrahydro-2H-pyran-4-yl)pyrimidine-4,6-diamine] |  | ≤ 1 |  |  |
| Cc1cc(Nc2cc(NC3CCOCC3)nc(-c3ccc4ccccc4c3)n2)n[nH]1 [Example 128, N^4-(5-methyl-1H-pyrazol-3-yl)-2-(naphthalen-2-yl)-N^6-(tetrahydro-2H-pyran-4-yl)pyrimidine-4,6-diamine] | ≤ 0.1 |  | 1 to 10 | IC50 ([3]; 40 minutes at room temperature): ≤ 0.1 µM; IC50 ([2]; 40 minutes at room temperature): ≤ 0.1 µM |
| Cc1cc(Nc2cc(N(C)CCN(C)C)nc(-c3cccc4c3OCCO4)n2)n[nH]1 [Example 143, 2-(2,3-dihydrobenzo[b][1,4]dioxin-5-yl)-N^4-(2-(dimethylamino)ethyl)-N^4-methyl-N^6-(5-methyl-1H-pyrazol-3-yl)pyrimidine-4,6-diamine] | ≤ 0.1 | ≤ 1 | 1 to 10 |  |
| CCc1ccccc1-c1nc(Nc2cc(C)[nH]n2)cc(N(C)CCOC)n1 [Example 187, 2-(2-ethylphenyl)-N^4-(2-methoxyethyl)-N^4-methyl-N^6-(5-methyl-1H-pyrazol-3-yl)pyrimidine-4,6-diamine] | ≤ 0.1 | ≤ 1 |  | IC50 ([3]; 40 minutes at room temperature): ≤ 0.1 µM |
| Cc1cc(Nc2cc(N3CCN(C)CC3)nc(-c3c(C)cccc3C)n2)n[nH]1 [Example 194, 2-(2,6-dimethylphenyl)-N-(5-methyl-1H-pyrazol-3-yl)-6-(4-methylpiperazin-1-yl)pyrimidin-4-amine] |  |  |  | IC50 [1, 4]: ≤ 1 µM |
| Cc1cc(Nc2cc(NC3CCOCC3)nc(-c3c(C)cccc3C)n2)n[nH]1 [Example 199, 2-(2,6-dimethylphenyl)-N^4-(5-methyl-1H-pyrazol-3-yl)-N^6-(tetrahydro-2H-pyran-4-yl)pyrimidine-4,6-diamine] |  |  |  | IC50 [1, 4]: ≤ 1 µM |
| COCCN(C)c1cc(Nc2cc(C)[nH]n2)nc(-c2ccccc2OC)n1 [Compound 69, N^4-(2-methoxyethyl)-2-(2-methoxyphenyl)-N^4-methyl-N^6-(5-methyl-1H-pyrazol-3-yl)pyrimidine-4,6-diamine] |  | ≤ 1 | 1 to 10 | IC50 [1, 4]: ≤ 1 µM |
| Cc1ccc(C)c(-c2nc(Nc3cc(C)[nH]n3)cc(N(C)CCN(C)C)n2)c1 [Example 207, N^4-(2-(dimethylamino)ethyl)-2-(2,5-dimethylphenyl)-N^4-methyl-N^6-(5-methyl-1H-pyrazol-3-yl)pyrimidine-4,6-diamine] | ≤ 0.1 | ≤ 1 |  |  |
| Cc1cc(Nc2cc(N(C)CCN(C)C)nc(-c3c(C)cccc3C)n2)n[nH]1 [Example 195, N^4-(2-(dimethylamino)ethyl)-2-(2,6-dimethylphenyl)-N^4-methyl-N^6-(5-methyl-1H-pyrazol-3-yl)pyrimidine-4,6-diamine] |  |  |  | IC50 [1, 4]: ≤ 1 µM |
| Cc1cccc(-c2nc(Nc3cc(C)[nH]n3)cc(NC3CCOCC3)n2)c1 [Compound 26, N^4-(5-methyl-1H-pyrazol-3-yl)-N^6-(tetrahydro-2H-pyran-4-yl)-2-m-tolylpyrimidine-4,6-diamine] |  |  | 1 to 10 | IC50 [3, 4]: ≤ 1 µM; IC50 ([2]; 40 minutes at room temperature): ≤ 0.1 µM |
| COCCN(C)c1cc(Nc2cc(C)[nH]n2)nc(-c2ccc(C(C)(C)C)cc2)n1 [Compound 115, 2-(4-tert-butylphenyl)-N^4-(2-methoxyethyl)-N^4-methyl-N^6-(5-methyl-1H-pyrazol-3-yl)pyrimidine-4,6-diamine] | ≤ 0.1 |  | 1 to 10 | IC50 [3, 4]: ≤ 1 µM |
| Cc1cc(Nc2cc(N3CCN(C)CC3)nc(-c3ccc(S(C)(=O)=O)cc3)n2)n[nH]1 [Compound 95, N-(5-methyl-1H-pyrazol-3-yl)-6-(4-methylpiperazin-1-yl)-2-(4-(methylsulfonyl)phenyl)pyrimidin-4-amine] |  |  |  | GI50 (HCT116 cells): ≤ 1 µM |
| COCCN(C)c1cc(Nc2cc(C)[nH]n2)nc(-c2cc(C)ccc2C)n1 [Example 202, 2-(2,5-dimethylphenyl)-N^4-(2-methoxyethyl)-N^4-methyl-N^6-(5-methyl-1H-pyrazol-3-yl)pyrimidine-4,6-diamine] | ≤ 0.1 |  | 1 to 10 |  |
| Cc1cc(Nc2cc(N3CCN(C)CC3)nc(-c3cc(C(F)(F)F)cc(C(F)(F)F)c3)n2)n[nH]1 [Example 173, 2-(3,5-bis(trifluoromethyl)phenyl)-N-(5-methyl-1H-pyrazol-3-yl)-6-(4-methylpiperazin-1-yl)pyrimidin-4-amine] | ≤ 0.1 |  |  | GI50 (HCT116 cells): ≤ 1 µM |
